# Laboratory results taken from PMC5342389, “PIM kinases as therapeutic targets against advanced melanoma” (Oncotarget, 2016).
# How the values were obtained:
# [1] = tested on: collagen-embedded melanoma spheroids; assay: LIVE/DEAD viability/cytotoxicity assay on 3D spheroids; conditions: SGI-1776 [5 μM] or AZD6482 [10 μM] as single agents or in combination, 72 h
# pAKTSer473 = assay: Western blot for AZD6482 target inhibition; format: cell-based, human; conditions: increasing doses, 72 h
# Description: Since PIM kinases and AKT share common downstream effectors, we hypothesized that inhibiting both PIM and PI3K activity would prevent pathway compensation, enhance melanoma cell death compared to each single agent, and maintain low activity of AKT and STAT3.
# Supplementary Figure S5: AZD6482 target inhibition. Increasing doses of the PI3Kβ inhibitor AZD6482 were used to treat melanoma cells for 72 h before lysates were collected and probed for pAKTSer473 and total protein. Hsp90 was used as a loading control. […]
# combination. To facilitate statistical analysis of synergy effects, we used a grid-like design of constant ratio drug combinations. Viability was calculated relative to DMSO controls in each plate and the mean of three experiments provided. Synergy was calculated for combination experiments using the Bliss formula. […]
# observed combination effects. […]
# [2] = tested on: Melanoma cell lines and normal fibroblasts; assay: propidium iodide staining (cell death); format: cell-based; conditions: 10 μM, 72 h
# 1205Lu tumors = assay: Western blot of mouse tumor lysates; format: in vivo, mice; conditions: tumor lysates 17 days following treatment
# From the text: Error bars represent SEM, n = 10 mice. […] Histone H3 served as loading control.
# We next determined the expression levels of PIM1, −2 and −3 in two mouse tumors from the in vivo combination experiment shown in Figure 6A. Tumor samples were collected following 3 days of treatment and PIM expression levels were not consistently changed across treatment groups; however, the presence of PLX4720 correlated with higher PIM2 levels (Figure 6B). To understand signaling changes leading to our observed drug response in vivo, western blot analyses were then conducted on tumor lysates isolated 17 days following treatment (Figure 6C).
# For immunoblots, proteins were extracted as described in [49], and 50 μg of cell extract were resolved on a 10% polyacrylamide-SDS gel before being transferred onto a polyvinylidene membrane (BioRad, Hercules, CA). All primary antibodies were purchased from Cell Signaling Technologies (Beverly, MA), except for the PIM1 antibody, which was purchased from Abcam (Cambridge, MA). All membranes were probed with primary antibodies overnight at 4°C, then incubated with Alexa Fluor-labeled secondary antibodies (IRDye 680LT goat-anti mouse, IRDye 800CW goat-anti rabbit (LI-COR, Lincoln, NE)) for 1h and scanned with the Odyssey system (LI-COR, Lincoln, NE). […]
# [3] = tested on: Melanoma cells and normal fibroblasts; assay: alamarBlue proliferation assay, adherent cultures, 72 h; format: cell-based, human; conditions: increasing doses, normalized to DMSO
# [4] = tested on: 1205Lu, WM983B, and 451Lu; assay: Western blot of adherent (2D) melanoma cells; format: cell-based, human; conditions: 10 μM, 12 h
# [5] = in vivo
# AML xenografts = conditions: cited from earlier work
# PIM1 = conditions: cited from earlier work
SMILES,spheroid invasion and cell death (LIVE/DEAD) [1],AKT inhibition (pAKTSer473) (pAKTSer473),cell death / cytotoxicity (propidium iodide) [2],p27Kip1 levels (1205Lu tumors),"proliferation response (alamarBlue), melanoma cell lines versus fibroblasts [3]",levels of downstream PIM kinase signaling effectors [4],"total levels of PIM1, −2, or −3 [4]",total mouse weight / toxic effects [5],tumor regression (AML xenografts),IC50 (PIM1) [nM]
Cc1cc([C@@H](C)Nc2ccccc2C(=O)O)c2nc(N3CCOCC3)cc(=O)n2c1 [AZD6482],inhibit spheroid invasion and cause cell death,confirming AKT inhibition,–,–,–,–,–,–,–,–
CN1CCC(CNc2ccc3ncc(-c4cccc(OC(F)(F)F)c4)n3n2)CC1 [SGI-1776],inhibit spheroid invasion and cause cell death,–,significantly increased cell death in the melanoma cell lines compared to normal fibroblasts,elevated p27Kip1 levels,[…],"downregulation of pBADS136, pSTAT3Y705, and pAKTS473 levels were observed",does not dramatically reduce total levels,minimal effects on total mouse weight,concentration-dependent tumor regressions,[…]
